In the supplement of paper PMC10307832:

Experiments:
Experiment in all cases: relative viability (nuclei count vs DMSO), 5 days (fraction); higher = more cells survive
[1] = compound: C1COCCN1C2=NC(=NC3=C2OC4=C3C=CC=N4)C5=CC(=CC=C5)NC(=O)C6=CN=C(C=C6)N + Cc1nc(NC(=O)N2CCC[C@H]2C(N)=O)sc1-c1ccnc(C(C)(C)C(F)(F)F)c1 [Alpelisib] (partner 2 µM)
Summary of the method: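 Lung cancer cell lines were seeded in 1536-well plates and dosed by pin tool the next day, with either a single drug or a fixed anchor-drug dose combined with five library-drug doses (not always all listed) spaced in √10 steps. Five days later, one step fixed the cells and stained their nuclei (final 0.05% Triton X-100, 1% formaldehyde, 1 ug/ml Hoechst), and nuclei were counted on 4× images. Relative viability is the nuclei count in treated wells divided by the count in vehicle wells, and each value is the median of duplicate plates.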

Entinostat = compound: Nc1ccccc1NC(=O)c1ccc(CNC(=O)OCc2cccnc2)cc1 [Entinostat]
Summary of the method: (§1)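 Following overnight incubation at 37 °C, lung cancer cell lines in 1536-well plates were pinned with five library-drug doses (not always all listed) in √10 steps on vehicle-anchored plates. The cells then spent 5 days without medium change before a combined fix, permeabilisation and Hoechst stain, 4× imaging and MetaXpress nuclear counts. Viability is the treated-to-vehicle ratio of nuclei, taken as the median across plates. Only plates with control CV below 25% and at least one doubling passed.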

[2] = compound: C1COCCN1C2=NC(=NC3=C2OC4=C3C=CC=N4)C5=CC(=CC=C5)NC(=O)C6=CN=C(C=C6)N
Summary of the method: as §1

SGI-1776 = compound: CN1CCC(CNc2ccc3ncc(-c4cccc(OC(F)(F)F)c4)n3n2)CC1 [SGI-1776]
Summary of the method: as §1

NCI-H358
relative viability ([1]; first compound 0.02 µM): 0.928 | relative viability ([1]; first compound 0.06325 µM): 0.925 | relative viability ([1]; first compound 0.2 µM): 0.783 | relative viability ([1]; first compound 0.6325 µM): 0.943 | relative viability ([1]; first compound 2 µM): 0.486 | relative viability (Entinostat; 0.02 µM): 1.09 | relative viability (Entinostat; 0.06325 µM): 1.17 | relative viability (Entinostat; 0.2 µM): 0.934 | relative viability (Entinostat; 0.6325 µM): 0.641 | relative viability (Entinostat; 2 µM): 0.255 | relative viability ([2]; 0.02 µM): 0.864 | relative viability ([2]; 0.06325 µM): 1.09 | relative viability ([2]; 0.2 µM): 0.871 | relative viability ([2]; 0.6325 µM): 0.832 | relative viability ([2]; 2 µM): 0.625 | relative viability (SGI-1776; 0.08 µM): 0.986 | relative viability (SGI-1776; 0.8 µM): 0.957 | relative viability (SGI-1776; 2.53 µM): 0.897 | relative viability (SGI-1776; 8 µM): 0.512

H3255
relative viability ([1]; first compound 0.02 µM): 0.577 | relative viability ([1]; first compound 0.06325 µM): 0.714 | relative viability ([1]; first compound 0.2 µM): 0.628 | relative viability ([1]; first compound 0.6325 µM): 0.693 | relative viability ([1]; first compound 2 µM): 0.483 | relative viability (Entinostat; 0.02 µM): 0.98 | relative viability (Entinostat; 0.06325 µM): 0.915 | relative viability (Entinostat; 0.2 µM): 0.764 | relative viability (Entinostat; 0.6325 µM): 0.535 | relative viability (Entinostat; 2 µM): 0.369 | relative viability ([2]; 0.02 µM): 0.944 | relative viability ([2]; 0.06325 µM): 0.956 | relative viability ([2]; 0.2 µM): 0.945 | relative viability ([2]; 0.6325 µM): 0.951 | relative viability ([2]; 2 µM): 0.8 | relative viability (SGI-1776; 0.08 µM): 1.07 | relative viability (SGI-1776; 0.8 µM): 1.04 | relative viability (SGI-1776; 2.53 µM): 1.04 | relative viability (SGI-1776; 8 µM): 0.829

NCI-H1623
relative viability (Entinostat; 0.02 µM): 1 | relative viability (Entinostat; 0.06325 µM): 0.937 | relative viability (Entinostat; 0.2 µM): 0.918 | relative viability (Entinostat; 0.6325 µM): 0.625 | relative viability (Entinostat; 2 µM): 0.462 | relative viability ([2]; 0.02 µM): 1.07 | relative viability ([2]; 0.06325 µM): 0.943 | relative viability ([2]; 0.2 µM): 0.895 | relative viability ([2]; 0.6325 µM): 0.924 | relative viability ([2]; 2 µM): 0.853 | relative viability (SGI-1776; 0.08 µM): 0.977 | relative viability (SGI-1776; 0.8 µM): 0.967 | relative viability (SGI-1776; 2.53 µM): 0.951 | relative viability (SGI-1776; 8 µM): 0.897

SW 900
relative viability (Entinostat; 0.02 µM): 0.92 | relative viability (Entinostat; 0.06325 µM): 0.944 | relative viability (Entinostat; 0.2 µM): 0.92 | relative viability (Entinostat; 0.6325 µM): 0.748 | relative viability (Entinostat; 2 µM): 0.519 | relative viability ([2]; 0.02 µM): 0.759 | relative viability ([2]; 0.06325 µM): 1.01 | relative viability ([2]; 0.2 µM): 0.87 | relative viability ([2]; 0.6325 µM): 0.784 | relative viability ([2]; 2 µM): 0.76 | relative viability (SGI-1776; 0.08 µM): 0.891 | relative viability (SGI-1776; 0.8 µM): 1.01 | relative viability (SGI-1776; 2.53 µM): 0.746 | relative viability (SGI-1776; 8 µM): 0.526

NCI-H1650
relative viability (Entinostat; 0.02 µM): 0.999 | relative viability (Entinostat; 0.06325 µM): 0.929 | relative viability (Entinostat; 0.2 µM): 0.964 | relative viability (Entinostat; 0.6325 µM): 0.635 | relative viability (Entinostat; 2 µM): 0.334 | relative viability ([2]; 0.02 µM): 0.865 | relative viability ([2]; 0.06325 µM): 1.01 | relative viability ([2]; 0.2 µM): 0.8 | relative viability ([2]; 0.6325 µM): 0.896 | relative viability ([2]; 2 µM): 0.618 | relative viability (SGI-1776; 0.08 µM): 0.945 | relative viability (SGI-1776; 0.8 µM): 0.879 | relative viability (SGI-1776; 2.53 µM): 0.84 | relative viability (SGI-1776; 8 µM): 0.442

NCI-H2342
relative viability (Entinostat; 0.02 µM): 1.07 | relative viability (Entinostat; 0.06325 µM): 1.08 | relative viability (Entinostat; 0.2 µM): 0.907 | relative viability (Entinostat; 0.6325 µM): 0.908 | relative viability (Entinostat; 2 µM): 0.73 | relative viability ([2]; 0.02 µM): 1 | relative viability ([2]; 0.06325 µM): 1.1 | relative viability ([2]; 0.2 µM): 0.938 | relative viability ([2]; 0.6325 µM): 0.928 | relative viability ([2]; 2 µM): 0.827 | relative viability (SGI-1776; 0.08 µM): 1.1 | relative viability (SGI-1776; 0.8 µM): 0.927 | relative viability (SGI-1776; 2.53 µM): 0.914 | relative viability (SGI-1776; 8 µM): 1.07

ChaGo-K-1
relative viability (Entinostat; 0.02 µM): 1.04 | relative viability (Entinostat; 0.06325 µM): 0.934 | relative viability (Entinostat; 0.2 µM): 1.11 | relative viability (Entinostat; 0.6325 µM): 0.961 | relative viability (Entinostat; 2 µM): 0.881 | relative viability ([2]; 0.02 µM): 0.949 | relative viability ([2]; 0.06325 µM): 1.07 | relative viability ([2]; 0.2 µM): 0.897 | relative viability ([2]; 0.6325 µM): 1.01 | relative viability ([2]; 2 µM): 0.837 | relative viability (SGI-1776; 0.08 µM): 1.06 | relative viability (SGI-1776; 0.8 µM): 1.01 | relative viability (SGI-1776; 2.53 µM): 0.949 | relative viability (SGI-1776; 8 µM): 0.855

NCI-H1648
relative viability (Entinostat; 0.02 µM): 1.09 | relative viability (Entinostat; 0.06325 µM): 1 | relative viability (Entinostat; 0.2 µM): 0.823 | relative viability (Entinostat; 0.6325 µM): 0.639 | relative viability (Entinostat; 2 µM): 0.526 | relative viability ([2]; 0.02 µM): 0.93 | relative viability ([2]; 0.06325 µM): 0.788 | relative viability ([2]; 0.2 µM): 0.853 | relative viability ([2]; 0.6325 µM): 0.538 | relative viability ([2]; 2 µM): 0.794 | relative viability (SGI-1776; 0.08 µM): 1 | relative viability (SGI-1776; 0.8 µM): 0.884 | relative viability (SGI-1776; 2.53 µM): 0.844 | relative viability (SGI-1776; 8 µM): 0.767

NCI-H522
relative viability (Entinostat; 0.02 µM): 1.03 | relative viability (Entinostat; 0.06325 µM): 0.967 | relative viability (Entinostat; 0.2 µM): 1.19 | relative viability (Entinostat; 0.6325 µM): 1.11 | relative viability (Entinostat; 2 µM): 0.646 | relative viability ([2]; 0.02 µM): 0.945 | relative viability ([2]; 0.06325 µM): 0.927 | relative viability ([2]; 0.2 µM): 0.888 | relative viability ([2]; 0.6325 µM): 0.988 | relative viability ([2]; 2 µM): 0.955 | relative viability (SGI-1776; 0.08 µM): 1.04 | relative viability (SGI-1776; 0.8 µM): 1.01 | relative viability (SGI-1776; 2.53 µM): 0.875 | relative viability (SGI-1776; 8 µM): 0.827
